Assay results: patent publication US20230014445A1, “ALLOSTERIC CHROMENONE INHIBITORS OF PHOSPHOINOSITIDE 3-KINASE (PI3K) FOR THE TREATMENT OF DISEASE” (Petra Pharma Corporation, priority 2021, published 2023)

How the values were obtained:
[1] = target: PI3K-α (PIK3CA) in MDA-MB-453 cells (Homo sapiens, UniProt P42336); experiment: PI3K-Alpha Kinase (PIK3CA) activity in vitro cell based assay (AlphaLisa SureFire); conditions: 0% FBS, 3 hours treatment, read-out: PI3K-α (PIK3CA) in vitro cell based assay IC50
Sequence of PI3K-α (PIK3CA) in MDA-MB-453 cells (P42336 whole entry): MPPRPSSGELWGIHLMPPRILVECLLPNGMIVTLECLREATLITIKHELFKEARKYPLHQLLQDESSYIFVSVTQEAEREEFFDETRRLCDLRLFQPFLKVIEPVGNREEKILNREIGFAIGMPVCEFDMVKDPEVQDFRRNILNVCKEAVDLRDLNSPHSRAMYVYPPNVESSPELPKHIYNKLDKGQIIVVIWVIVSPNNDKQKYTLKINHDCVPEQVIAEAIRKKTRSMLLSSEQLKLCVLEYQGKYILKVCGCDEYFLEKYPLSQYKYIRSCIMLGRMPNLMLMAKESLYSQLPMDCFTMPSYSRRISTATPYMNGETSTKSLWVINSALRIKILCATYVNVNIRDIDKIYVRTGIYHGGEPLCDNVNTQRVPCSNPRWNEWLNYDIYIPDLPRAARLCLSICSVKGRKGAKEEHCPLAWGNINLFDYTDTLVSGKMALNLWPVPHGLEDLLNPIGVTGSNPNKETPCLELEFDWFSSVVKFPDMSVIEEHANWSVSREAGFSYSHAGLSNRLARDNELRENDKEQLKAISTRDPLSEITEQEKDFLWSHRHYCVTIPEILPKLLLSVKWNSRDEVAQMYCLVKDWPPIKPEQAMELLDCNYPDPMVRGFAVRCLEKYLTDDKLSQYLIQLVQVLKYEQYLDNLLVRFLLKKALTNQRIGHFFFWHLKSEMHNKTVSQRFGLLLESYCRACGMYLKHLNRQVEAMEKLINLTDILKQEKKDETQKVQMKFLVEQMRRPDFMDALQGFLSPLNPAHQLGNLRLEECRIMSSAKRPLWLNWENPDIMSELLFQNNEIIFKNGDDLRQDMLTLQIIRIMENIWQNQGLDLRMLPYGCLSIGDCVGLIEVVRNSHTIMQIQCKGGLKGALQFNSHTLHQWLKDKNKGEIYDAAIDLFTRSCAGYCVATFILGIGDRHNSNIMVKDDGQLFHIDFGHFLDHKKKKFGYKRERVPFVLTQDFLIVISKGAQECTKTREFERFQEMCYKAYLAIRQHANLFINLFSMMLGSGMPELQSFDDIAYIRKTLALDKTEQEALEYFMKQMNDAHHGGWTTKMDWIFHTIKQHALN
Sequence of PI3K-α (PIK3CA) in MDA-MB-453 cells (P27986 2-724, further chain): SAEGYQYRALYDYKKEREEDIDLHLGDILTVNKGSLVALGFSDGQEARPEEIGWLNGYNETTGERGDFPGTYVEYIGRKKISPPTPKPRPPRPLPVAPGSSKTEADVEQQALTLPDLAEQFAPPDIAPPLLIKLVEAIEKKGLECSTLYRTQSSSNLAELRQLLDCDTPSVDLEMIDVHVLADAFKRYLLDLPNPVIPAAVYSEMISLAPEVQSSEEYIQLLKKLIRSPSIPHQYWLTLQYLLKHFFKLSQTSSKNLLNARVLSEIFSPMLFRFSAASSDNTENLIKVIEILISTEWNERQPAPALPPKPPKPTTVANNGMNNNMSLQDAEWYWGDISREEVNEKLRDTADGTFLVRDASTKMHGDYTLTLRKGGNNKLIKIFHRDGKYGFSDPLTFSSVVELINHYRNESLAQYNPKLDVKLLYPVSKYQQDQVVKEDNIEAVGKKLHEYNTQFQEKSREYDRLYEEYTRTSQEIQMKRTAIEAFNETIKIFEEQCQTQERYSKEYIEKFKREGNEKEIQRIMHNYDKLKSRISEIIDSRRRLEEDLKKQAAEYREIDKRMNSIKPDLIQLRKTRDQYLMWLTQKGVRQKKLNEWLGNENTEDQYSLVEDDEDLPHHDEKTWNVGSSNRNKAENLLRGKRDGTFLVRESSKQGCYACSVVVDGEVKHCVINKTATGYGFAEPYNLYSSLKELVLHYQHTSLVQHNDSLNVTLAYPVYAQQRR
Experimental: PI3K-Alpha Kinase (PIK3CA) Activity In Vitro Cell Based Assay and Determining IC50 Values for Inhibitors
The MDA-MB-453 (ATCC-HTB-131) cell line was obtained from the American Type Culture Collection (Manassas, Va.). Cells were maintained in Dulbecco's Modified Eagle Media (DMVEM, Gibco 11965-092) supplemented with 10% Fetal Bovine Serum, heat inactivated (FBS HI, Gibco 10082-147), 1× non-essential amino acids (NEAA, Gibco 11140-050), and 1 mM sodium pyruvate (Gibco 11360-070). Cultures were maintained in a humidified incubator at 37° C. under […].
For compound testing in 0% FBS, MDA-MB-453 cells were seeded at a density of 1.5×10^4 cells per well in white 384-well plates in 20 μl of Minimum Essential Media (MEM) assay media with 1×NEAA, 1 mM sodium pyruvate, and 1 μg/mL human insulin (Sigma I9278). Compounds dissolved in 10 mM stock solutions in DMSO were serially diluted 1:3 in DMSO to generate a 10-point dilution series and plated using an acoustic liquid handler system (Echo 550 Series Liquid Handler, Labcyte). A 5× intermediate compound dilution plate in MEM with 1×NEAA and 1 mM sodium pyruvate (150 μM starting compound concentration in 1.5% DMSO) was then prepared. Five μl of the intermediate serially diluted compounds were added to the cell plate to final concentrations ranging from […] in 0.3% DMSO. 0.3% DMSO alone was used to establish the maximum (MAX) signal and GDC-0032 at a final concentration of 1 μM was used as a reference compound for the minimum (MIN) signal. After 3 hours treatment, the medium was removed, and the cells lysed in 10 μL of 1× SureFire Lysis buffer with shaking for 10 minutes at room temperature. The Acceptor Mix (Reaction Buffer 1+Reaction Buffer 2+Activation Buffer+SureFire Ultra Acceptor Beads) was prepared by diluting Activation buffer 25-fold in combined Reaction Buffer 1 and Reaction Buffer 2. The Acceptor beads were diluted 50-fold in the combined Reaction Buffers. Five μL of Acceptor Mix was added to each well, the plate was sealed and covered with foil and incubated for 1 hour at room temperature. The Donor Mix (dilution buffer+SureFire Ultra Donor Beads) was prepared by diluting Donor Beads 50-fold in dilution buffer. Five μL of the Donor Mix was added to each well and the plate sealed and covered with foil and incubated for 1 hour at room temperature in the dark. The plates were read on a Neo2 plate reader instrument from Biotek using standard AlphaLisa settings.
Compounds were tested in duplicate and the average % inhibition at each compound concentration was used to generate a single dose response curve. The data were processed using the Genedata-Screener tool. Relative IC50 values were determined using luminescence units by calculating percent inhibition with respect to the in-plate “MIN” (GDC-0032 reference control) and “MAX” (DMSO) controls. The data was analyzed using a 4-parameter nonlinear logistic equation (four-parameter logistic concentration-response curve):
Y=bottom+[(top−bottom)/1+(X/IC50)slope]
where Y=% inhibition, X=concentration of inhibitor, bottom=minimum value of y attained by curve-fit, top=maximum value of y attained by curve-fit and slope=steepness of curve at the IC50.
% Inhibition=[(signal at X−median Min)/(median Max−median Min)]×100
IC50: concentration of compound that reduces a given response (ligand binding, enzyme response) by 50%. Relative IC50: concentration giving half the compound's maximum response.
For IC50 values shown in Table B, “A” means IC50<50 nM; “B” means IC50 ranging between 50 nM and 100 nM; “C” means IC50 ranging between 100 nM and 500 nM; “D” means IC50>500 nM.

[2] = target: T1, human full length PIK3KA Wild-type (p110α/p85α complex) (Homo sapiens, UniProt P42336); experiment: PI3K-Alpha Kinase (PIK3CA) biochemical activity, wild-type (ADP-Glo); conditions: 20 uM ATP
T1 construct: Recombinant, catalytically active human full length PIK3KA Wild-type and H1047R mutant were purchased; 6xHis (N); purchased EMD Millipore Sigma 14-602M
Procedure, shortened: (§1)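 ADP formation, measured by ADP-Glo luminescence after reaction to about 10% ATP conversion at 27° C., gives 10-point 4-parameter IC50 curves normalized to no-enzyme and DMSO controls. Lipid substrate was PIP2diC8 or Soy PI at 50 uM, with 20 uM ATP. WT or H1047R p110α/p85α complex (1-5 nM) was preincubated 1 h with compound.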

[3] = target: T2, human full length PIK3KA H1047R mutant (p110α/p85α complex) (Homo sapiens, UniProt P42336, H1047R); experiment: PI3K-Alpha Kinase (PIK3CA) biochemical activity, H1047R mutant (ADP-Glo); conditions: 20 uM ATP
T2 construct: Recombinant, catalytically active human full length PIK3KA Wild-type and H1047R mutant were purchased; 6xHis (N); purchased EMD Millipore Sigma 14-792M
T2 sequence (P42336 whole entry H1047R): as the sequence (P42336 whole entry) above, with H1047R counted along it
T2 sequence (P27986 whole entry partner): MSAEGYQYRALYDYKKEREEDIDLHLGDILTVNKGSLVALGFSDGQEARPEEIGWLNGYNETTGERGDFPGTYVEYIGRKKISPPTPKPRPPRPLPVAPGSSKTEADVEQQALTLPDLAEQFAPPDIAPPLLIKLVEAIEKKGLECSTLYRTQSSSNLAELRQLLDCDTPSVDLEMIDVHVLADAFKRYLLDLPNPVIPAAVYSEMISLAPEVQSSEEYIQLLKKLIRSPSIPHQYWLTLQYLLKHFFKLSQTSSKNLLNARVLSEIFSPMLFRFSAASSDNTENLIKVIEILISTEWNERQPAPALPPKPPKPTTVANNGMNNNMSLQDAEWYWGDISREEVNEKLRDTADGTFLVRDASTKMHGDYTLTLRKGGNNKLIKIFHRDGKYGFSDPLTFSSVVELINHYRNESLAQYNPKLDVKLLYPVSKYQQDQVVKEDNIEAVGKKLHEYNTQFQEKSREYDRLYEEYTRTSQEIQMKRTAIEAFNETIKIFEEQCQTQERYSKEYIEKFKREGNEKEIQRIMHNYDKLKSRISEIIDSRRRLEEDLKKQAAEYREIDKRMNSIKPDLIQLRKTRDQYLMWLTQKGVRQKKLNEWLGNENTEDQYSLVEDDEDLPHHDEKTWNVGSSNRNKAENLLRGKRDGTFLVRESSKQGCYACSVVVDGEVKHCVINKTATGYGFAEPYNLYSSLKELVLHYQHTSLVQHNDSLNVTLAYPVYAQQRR
Procedure, shortened: as §1

| IC50 [1] [nM] | IC50 ([2]; Soy PI lipid substrate) [nM] | IC50 ([3]; Soy PI lipid substrate) [nM] | IC50 ([2]; PIP2diC8 lipid substrate) [nM] | IC50 ([3]; PIP2diC8 lipid substrate) [nM] | SMILES |
| --- | --- | --- | --- | --- | --- |
| < 50 | 1000 to 5000 | < 500 | – | – | Cc1cc(C(C)Nc2ccccc2C(=O)O)c2oc(-c3ccccn3)c(C)c(=O)c2c1 (single isomer, unassigned; isomer 1) [Example 24, 2-[1-[3,6-Dimethyl-4-oxo-2-(2-pyridyl)chromen-8-yl]ethylamino]benzoic acid, Isomer 1] |
| < 50 | 500 to 1000 | < 500 | – | – | Cc1cc(C(C)Nc2ccccc2C(=O)O)c2oc(-c3cccnc3)c(C)c(=O)c2c1 (single isomer, unassigned; isomer 1) [Example 25, 2-[1-[3,6-Dimethyl-4-oxo-2-(3-pyridyl)chromen-8-yl]ethylamino]benzoic acid, Isomer 1] |
| > 500 | – | – | > 10000 | 5000 to 10000 | Cc1cc(C(C)Nc2ccccc2C(=O)O)c2oc(-c3ccc(OC(C)C)nc3)cc(=O)c2c1 (single isomer, unassigned; isomer 1) [Example 30, 2-[1-[2-(6-Isopropoxy-3-pyridyl)-6-methyl-4-oxo-chromen-8-yl]ethylamino]benzoic acid, Isomer 1] |
| > 500 | > 10000 | > 10000 | – | – | Cc1cc(C(C)Nc2ccccc2C(=O)O)c2oc(-c3ccc(F)nc3)cc(=O)c2c1 (single isomer, unassigned; isomer 1) [Example 35, 2-[1-[2-(6-Fluoro-3-pyridyl)-6-methyl-4-oxo-chromen-8-yl]ethylamino]benzoic acid, Isomer 1] |
| > 500 | > 10000 | > 10000 | – | – | Cc1cc(C(C)Nc2ccccc2C(=O)O)c2oc(-c3ccc(C(F)(F)F)nc3)cc(=O)c2c1 (single isomer, unassigned; isomer 1) [Example 37, 2-[1-[6-Methyl-4-oxo-2-[6-(trifluoromethyl)-3-pyridyl]chromen-8-yl]ethylamino]benzoic acid, Isomer 1] |
| > 500 | > 10000 | > 10000 | – | – | Cc1cc(C(C)Nc2ccccc2C(=O)O)c2oc(-c3ccc(S(C)(=O)=O)nc3)cc(=O)c2c1 (single isomer, unassigned; isomer 1) [Example 39, 2-[1-[6-Methyl-2-(6-methylsulfonyl-3-pyridyl)-4-oxo-chromen-8-yl]ethylamino]benzoic acid, Isomer 1] |
| > 500 | > 10000 | > 10000 | – | – | Cc1cc(C(C)Nc2ccccc2C(=O)O)c2oc(-c3cnc(OC(C)C)nc3)cc(=O)c2c1 (single isomer, unassigned; isomer 1) [Example 41, 2-[1-[2-(2-Isopropoxypyrimidin-5-yl)-6-methyl-4-oxo-chromen-8-yl]ethylamino]benzoic acid, Isomer 1] |
| < 50 | 500 to 1000 | < 500 | – | – | Cc1cc(C(C)Nc2ccccc2C(=O)O)c2oc(-c3cncc(F)c3)c(C)c(=O)c2c1 (single isomer, unassigned; isomer 1) [Example 45, 2-[1-[2-(5-Fluoro-3-pyridyl)-3,6-dimethyl-4-oxo-chromen-8-yl]ethylamino]benzoic acid, Isomer 1] |
| > 500 | > 10000 | > 10000 | – | – | Cc1cc(C(C)Nc2ccccc2C(=O)O)c2oc(-c3cnn(-c4cccnc4)c3)cc(=O)c2c1 (single isomer, unassigned; isomer 1) [Example 49, 2-[1-[6-Methyl-4-oxo-2-[1-(3-pyridyl)pyrazol-4-yl]chromen-8-yl]ethylamino]benzoic acid, Isomer 1] |
| < 50 | 500 to 1000 | < 500 | – | – | Cc1c(-c2ccccn2)oc2c(C(C)Nc3ccc(Cl)nc3C(=O)O)cc(C(F)(F)F)cc2c1=O (single isomer, unassigned; isomer 1) [Example 61, 6-Chloro-3-[1-[3-methyl-4-oxo-2-(2-pyridyl)-6-(trifluoromethyl)chromen-8-yl]ethylamino]pyridine-2-carboxylic acid, Isomer 1] |
| 50 to 100 | 5000 to 10000 | < 500 | – | – | CC(Nc1ccccc1C(=O)O)c1cc(C(F)(F)F)cc2c(=O)cc(-c3ccccn3)oc12 (single isomer, unassigned; isomer 1) [Example 76, 2-[1-[4-Oxo-2-(2-pyridyl)-6-(trifluoromethyl)chromen-8-yl]ethylamino]benzoic acid, Isomer 1] |
| < 50 | 1000 to 5000 | < 500 | – | – | Cc1c(-c2cncc(F)c2)oc2c(C(C)Nc3ccc(Cl)nc3C(=O)O)cc(C(F)(F)F)cc2c1=O (single isomer, unassigned; isomer 1) [Example 97, 6-Chloro-3-[1-[2-(5-fluoro-3-pyridyl)-3-methyl-4-oxo-6-(trifluoromethyl)chromen-8-yl]ethylamino]pyridine-2-carboxylic acid, Isomer 1] |
| 100 to 500 | 1000 to 5000 | < 500 | – | – | Cc1cc(C(C)Nc2cccc(F)c2C(=O)O)c2oc(-c3ccccn3)cc(=O)c2c1 (single isomer, unassigned; isomer 1) [Example 110, 2-Fluoro-6-[1-[6-methyl-4-oxo-2-(2-pyridyl)chromen-8-yl]ethylamino]benzoic acid, Isomer 1] |
| > 500 | > 10000 | 5000 to 10000 | – | – | Cc1cc(C(C)Nc2cccc(F)c2C(=O)O)c2oc(-c3cnn(-c4ccc(C#N)cc4)c3)cc(=O)c2c1 (single isomer, unassigned; isomer 1) [Example 112, 2-[1-[2-[1-(4-Cyanophenyl)pyrazol-4-yl]-6-methyl-4-oxo-chromen-8-yl]ethylamino]-6-fluoro-benzoic acid, Isomer 1] |
| > 500 | 5000 to 10000 | 1000 to 5000 | – | – | Cc1cc(C(C)Nc2ccc(F)c(F)c2C(=O)O)c2oc(-c3cnn(-c4ccc(C#N)cc4)c3)cc(=O)c2c1 (single isomer, unassigned; isomer 1) [Example 114, 6-[1-[2-[1-(4-Cyanophenyl)pyrazol-4-yl]-6-methyl-4-oxo-chromen-8-yl]ethylamino]-2,3-difluoro-benzoic acid, Isomer 1] |
| < 50 | 500 to 1000 | < 500 | – | – | Cc1cc(C(C)Nc2ccc(Cl)nc2C(=O)O)c2oc(-c3cccnc3)c(C)c(=O)c2c1 (single isomer, unassigned; isomer 1) [Example 115, 6-Chloro-3-[1-[3,6-dimethyl-4-oxo-2-(3-pyridyl)chromen-8-yl]ethylamino]pyridine-2-carboxylic acid, Isomer 1] |

| SMILES | IC50 [1] [nM] | IC50 ([2]; Soy PI lipid substrate) [nM] | IC50 ([3]; Soy PI lipid substrate) [nM] | IC50 ([2]; PIP2diC8 lipid substrate) [nM] | IC50 ([3]; PIP2diC8 lipid substrate) [nM] |
| --- | --- | --- | --- | --- | --- |
| Cc1cc(C(C)Nc2ccc(Cl)nc2C(=O)O)c2oc(-c3ccccn3)c(C)c(=O)c2c1 (single isomer, unassigned; isomer 1) [Example 60, 6-Chloro-3-[1-[3,6-dimethyl-4-oxo-2-(2-pyridyl)chromen-8-yl]ethylamino]pyridine-2-carboxylic acid, Isomer 1] | < 50 | 500 to 1000 | < 500 | – | – |
